System: HUMAN WHOLE BLOOD
Assay: IC50 in human whole blood
Assay type: cell-based

SMILES | IC50 [nM]
Cc1cc(Nc2cc(N[C@@H]3CCCC[C@@H]3N)nnc2C(N)=O)nc(C(C)C)c1 [Compound I-35, 6-((1R,2S)-2-aminocyclohexylamino)-4-(6-isopropyl-4-methylpyridin-2-ylamino)pyridazine-3-carboxamide] | 923
CC(C)Oc1cccc(Nc2cc(N[C@@H]3CCOC[C@@H]3N)nnc2C(N)=O)n1 [Compound I-43, 6-((3R,4R)-3-aminotetrahydro-2H-pyran-4-ylamino)-4-(6-isopropoxypyridin-2-ylamino)pyridazine-3-carboxamide] | 372
COc1nc(Nc2cc(N[C@@H]3CCOC[C@@H]3N)nnc2C(N)=O)ccc1C(C)C [Compound I-42, 6-((3R,4R)-3-aminotetrahydro-2H-pyran-4-ylamino)-4-(5-isopropyl-6-methoxypyridin-2-ylamino)pyridazine-3-carboxamide] | 909
CC(C)(O)c1cccc(Nc2cc(N[C@@H]3CCCC[C@@H]3N)nnc2C(N)=O)n1 [Compound I-37, 6-((1R,2S)-2-aminocyclohexylamino)-4-(6-(2-hydroxypropan-2-yl)pyridin-2-ylamino)pyridazine-3-carboxamide] | 2340
NC(=O)c1nnc(N[C@@H]2CCCC[C@@H]2N)cc1Nc1cccc(-n2nccn2)n1 [Compound I-23, 4-(6-(2H-1,2,3-triazol-2-yl)pyridin-2-ylamino)-6-((1R,2S)-2-aminocyclohexylamino)pyridazine-3-carboxamide] | 810
CCCc1cc(C)cc(Nc2cc(N[C@@H]3CCOC[C@@H]3N)nnc2C(N)=O)n1 [Compound I-39, 6-((3R,4R)-3-aminotetrahydro-2H-pyran-4-ylamino)-4-(4-methyl-6-propylpyridin-2-ylamino)pyridazine-3-carboxamide] | 818
CCCc1nc(Nc2cc(N[C@@H]3CCOC[C@@H]3N)nnc2C(N)=O)ccc1OC [Compound I-40, 6-((3R,4R)-3-aminotetrahydro-2H-pyran-4-ylamino)-4-(5-methoxy-6-propylpyridin-2-ylamino)pyridazine-3-carboxamide] | 332
NC(=O)c1nnc(N[C@@H]2CCCC[C@@H]2N)cc1Nc1cccc(-n2cccn2)n1 [Compound I-33, 4-(6-(1H-pyrazol-1-yl)pyridin-2-ylamino)-6-((1R,2S)-2-aminocyclohexylamino)pyridazine-3-carboxamide] | 1420
CC(C)(C#N)c1cccc(Nc2cc(N[C@@H]3CCCC[C@@H]3N)nnc2C(N)=O)n1 [Compound I-36, 6-((1R,2S)-2-aminocyclohexylamino)-4-(6-(2-cyanopropan-2-yl)pyridin-2-ylamino)pyridazine-3-carboxamide] | 2090
CC(C)(C)c1cccc(Nc2cc(N[C@@H]3CCOC[C@@H]3N)nnc2C(N)=O)n1 [Compound I-29, 6-((3R,4R)-3-aminotetrahydro-2H-pyran-4-ylamino)-4-(6-tert-butylpyridin-2-ylamino)pyridazine-3-carboxamide] | 1800
CCCc1cc(C)cc(Nc2cc(N[C@@H]3CCCC[C@@H]3N)nnc2C(N)=O)n1 [Compound I-38, 6-((1R,2S)-2-aminocyclohexylamino)-4-(4-methyl-6-propylpyridin-2-ylamino)pyridazine-3-carboxamide] | 642
Cn1cnc2c(Nc3cc(N[C@@H]4CCCC[C@@H]4N)nnc3C(N)=O)cccc21 [Compound I-22, 6-((1R,2S)-2-aminocyclohexylamino)-4-(1-methyl-1H-benzo[d]imidazol-4-ylamino)pyridazine-3-carboxamide] | 21500
Cc1ccc(Nc2cc(N[C@@H]3CCOC[C@@H]3N)nnc2C(N)=O)nc1C(C)C [Compound I-27, 6-((3R,4R)-3-Amino-tetrahydro-pyran-4-ylamino)-4-(6-isopropyl-5-methyl-pyridin-2-ylamino)-pyridazine-3-carboxylic acid amide] | 313
CCOc1cccc(Nc2cc(N[C@@H]3CCCC[C@@H]3N)nnc2C(N)=O)n1 [Compound I-30, 6-((1R,2S)-2-aminocyclohexylamino)-4-(6-ethoxypyridin-2-ylamino)pyridazine-3-carboxamide] | 487
